Data reported in patent publication US10065965B2, “Imidazo[1,2-B][1,2,4]triazine derivatives as antiparasitic agents” (GlaxoSmithKline Intellectual Property Development Limited, priority 2015, dated 2018).
In brackets after ≈: the same amount, converted by molar mass.

Columns and labels:
[1] = tested on: Trypanosoma cruzi; assay: Assay 6 Trypanosoma cruzi intracellular assay (infected H9C2 cells); type: cell-based; settings: H9c2, in Rattus norvegicus, 72 h, infected H9C2 rat cardiomyocytes, read-out: pEC50 value against Trypanosoma cruzi (converted)
Protocol: Compounds were dispensed into black 384-well assay plates (Greiner) by acoustic dispensing (LabCyte ECHO). For potency determinations, eleven-point, one in three dilution curves were generated, with a top concentration of 50 μM. H9C2 rat cardiomyocytes cells were dispensed in T225 tissue culture flasks and after 4 hours they were infected during 18 hours with T. cruzi trypomastigotes in the same T225 tissue culture flasks at a multiplicity of infection of 1. Next, any remaining free trypomastigotes were washed away with PBS and the infected H9C2 cells were harvested by trypsinisation. The infected H9C2 cells were then plated into 384-well plates containing the compounds to be tested, at 2500 cells per well in DMEM media with 2% FBS, 1% Penicillin/Streptomocin, 2 mM L-Glutamine, 1 mM Na Pyruvate and 25 mM HEPES. After 72 h incubation at 37° C. in presence of 5% CO2, the plates were fixed and stained with 4% formaldehyde and 2 μM Draq5 for 3 hours at room temperature. The plates were imaged on a Perkin Elmer Opera high-content imaging system using a 20× air objective. Images were analysed using the Acapella building blocks system (Perkin Elmer). The image analysis algorithm first identified the H9C2 nuclei followed by demarcation of the cytoplasm and identification of intracellular amastigotes. This algorithm reported mean number of parasites per H9C2 cell, the percentage of infected H9C2 cells and the total number of H9C2 cells.

[2] = Assay 4 solubility assay, ChemiLuminescent Nitrogen Detection (CLND); type: physicochemical; settings: phosphate buffered saline, pH 7.4, aqueous buffer, kinetic from dmso stock, pH 7.4 PBS, from 10 mM DMSO stock, 1 h at room temperature
Protocol: A 10 mM DMSO stock solution of the compound was prepared. Solvents and Buffers Organic solvents of HPLC grade were used. Ultra pure water (Milli-Q grade) was used. Buffers were prepared with ultra pure water and filtered using 0.45μ cameo filters. Aqueous Buffer Solution: Phosphate Buffer Saline (PBS) @ pH 7.4 was prepared from Sigma dry powder packs, P-3813. Each one was diluted to 1 liter with deionised water. The pH was checked before the solution was used II. Procedures. • a) DMSO concentration was measured. DMSO blanks and ondansetron and caffeine standards were added to the plate (column 12, A, B, C, & D for the blanks and E, F, G, & H for the standards). Plates were covered with foil. When the UV and CLND detectors baselines appeared to be stable, the CLND was zeroed. • b) Once DMSO concentration measurements were complete, a filtration plate was prepared from each parent plate by diluting 5 μl of the 10 mM DMSO stock solution to […] with pH7.4 PBS. • c) After the plates were prepared, they were covered with a plate lid and left to incubate for 1 h at room temperature. • d) Sample was filtered using MILLIPORE MultiScreen Solubility (MSSLBPC10) Filtration Plates, to NUNC V well plates. The filter plate was removed and the NUNC plate was sealed with a power seal plate seal. • e) HPLC/CLND instruments were set up and left to equilibrate. Mobile phases (MeOH:H2O 1:1, flow rate: 0.2 ml/min, sensitivity z10, Gain High). The samples were run. • f) The assay curve fit was done by linear regression and solubility values were reported in μM.

[3] = tested on: Leishmania donovani; assay: Assay 1 intramacrophage Leishmania donovani assay (potency readout); type: cell-based; settings: amastigotes in PMA-treated THP-1 macrophages, 96 h, average number of amastigotes per cell, minimum threshold 4.3, read-out: pEC50 value against Leishmania donovani (converted)
Protocol: The intramacrophage Leishmania assay was performed using a modified version of the method described in De Rycker et al. (Antimicrob Agents Chemother. 2013 July; 57(7):2913-22. Comparison of a high-throughput high-content intracellular Leishmania donovani assay with an axenic amastigote assay. De Rycker M, Hallyburton I, Thomas J, Campbell L, Wyllie S, Joshi D, Cameron S, Gilbert I H, Wyatt P G, Frearson J A, Fairlamb A H, Gray D W.). Procedure: 350 nl of compound was pre-dispensed into 384 well sterile intermediary plates. For single point screening, amphotericin B was added to all wells of column 24 as a positive control (final concentration 2 μM) and DMSO to column 23. For potency determinations, ten-point, one in three dilution curves were created with the highest concentration being 50 μM and on each plate a control curve of amphotericin B was included. Controls were as follows: columns 11 and 12: DMSO, columns 23 and 24: amphotericin B (final concentration 2 μM). To the intermediary plates, 35 μl of THP-1 media was added and plates were shaken for >5 min to ensure complete mixing. THP-1 cells (8,000 per well, 50 μl) were plated into black clear-bottom 384 well plates (Corning) in presence of 20 nM PMA. After 20 min at RT, the plates were incubated at 37° C. under 5% CO2 in a humidified incubator for 75 h. The cells were then washed with […] sterile phosphate buffered saline (PBS) supplemented with 1 mM CaCl2, 0.5 mM MgCl2, 0.1% (w/v) bovine serum albumin (PBS-A) and amastigotes were added to all wells at a multiplicity of infection of 5 (40,000 amastigotes per well). After 40 min at RT, plates were returned to the incubator. Amastigotes were incubated in the presence of THP-1 macrophages for 16 h. Any remaining extracellular amastigotes were subsequently removed with an overflow wash of 1 mL PBS-A per well (wash buffer is being aspirated from the top of the well as it is being dispensed) followed by addition of 25 μl of the compound pre-dilutions using a Fluidx Ipette-pro pipetting station. The final dilution of each compound was 200-fold. Plates were incubated for 96 h and then washed (250 μl PBS-A) and fixed (4% (v/v) formaldehyde-PBS, 30 min, RT). After fixation, the wells were washed with 250 μl PBS, stained (10 μg/mL DAPI, 0.4 μg mL-1 HCS Cellmask Deep Red in PBS+0.1% (v/v) Triton X-100, 30 min, RT) and washed with 250 μl PBS. Finally, PBS+0.05% (v/v) thimerosal was added to the wells, the plates were sealed and imaged on a high-content microscope (GE IN Cell 2000) using a 10× objective. Image analysis was carried out with GE IN Cell Analyzer 1000 Workstation using the “Multi Target Analysis” module. Settings for segmentation were as follows: nuclei: minimum area: 142.384 μm2, sensitivity: 81, method: top-hat; cells: characteristic area: 2500 μm2, sensitivity: 60, method: multiscale top-hat; organelles (amastigotes): granule size 1-3, 3 scales, sensitivity: 90, detection in entire cell. For each well, i) THP-1 cell count (cytotoxicity readout) and ii) average number of amastigotes per cell (potency readout) were calculated, both in terms of pEC50 values.

[4] = tested on: Trypanosoma brucei; assay: Assay 3 Trypanosoma brucei cell growth inhibition assay; type: cell-based; settings: T. b. brucei BSF427, 69 h + 4 h resazurin, maximum threshold 8.0, read-out: pEC50 value against Trypanosoma brucei (converted)
Protocol: Measurement of the ability of the compounds to inhibit trypanosome (T. b. brucei, BSF427, VSG118) cell growth was performed using a modification of the cell viability assay previously described by Raz et al. (Raz B.; Iten M.; Grether-Buhler Y.; Kaminski R.; Brun R. The Alamar Blue assay to determine drug sensitivity of African trypanosomes (T. b. rhodesiense and T. b. gambiense) in vitro. Acta Trop. 1997, 68, 139-147). Compounds were dissolved in DMSO at a top concentration of 10 mM and serially diluted in half log steps to achieve a range of final assay concentrations of 50 μM to 0.5 nM. Compound at each concentration (200-fold final) was added to clear 96-well tissue culture plates in a volume of 1 μL. Then 2000 cells per well in relevant growth medium (HMI-9T for T. brucei, a modification of HMI-9 as described by Hurumi et al. (Hirumi H.; Hirumi K. Continuous cultivation of Trypanosoma brucei blood stream forms in a medium containing a low concentration of serum-protein without feeder cell-layers. J. Parasitol. 1989, 75, 985-989.) where 0.2 mM 2-mercaptoethanol was replaced with 0.056 mM thiolglycerol, and MEM with 10% FBS for MRC5) were then added to columns 1-11 of the plates in a volume of 199 μL. To column 12, 200 μL of medium was added to provide a no cells control. Plates were then incubated at 37° C. in an atmosphere of 5% CO2 for 69 h, before the addition of 20 μL of 500 μM rezasurin solution, and a further incubation period of 4 h. Plates were then read on a BioTek flx800 fluorescent plate reader, and percentage inhibition was compared to the maximum and minimum assay controls. Concentration effect curves were fitted using nonlinear regression using XLFit 4.2 and EC50 values determined.

[5] = Assay 5 Leishmania donovani intracellular assay, cytotoxicity against THP-1 cells; type: cell-based; settings: human, total number of THP-1 cells, minimum threshold 4.3, read-out: cytotoxicity against THP-1 cells, pEC50 value (converted)
Protocol: Compounds were dispensed into black 384-well assay plates (Greiner) by acoustic dispensing (LabCyte ECHO). For potency determinations, eleven-point, one in three dilution curves were generated, with a top concentration of 50 μM. THP-1 human monocytes cells were dispensed in T225 tissue culture flasks and differentiated using 30 nM of PMA, after 24 hours they were infected overnight using Leishmania donovani expressing Green Fluorescent Protein (eGFP) amastigotes in the same T225 tissue culture flasks at a multiplicity of infection of 10. Next, any remaining free amastigotes were washed away with PBS and the infected THP-1 cells were harvested by trypsinisation. The infected cells were then plated into 384-well plates containing the compounds to be tested, at 3000 cells per well in RPMI media with 2% FBS and 25 mM Sodium bicarbonate. After 96 h incubation at 37° C. in presence of 5% CO2, the plates were fixed with 4% formaldehyde for 30 minutes, washed with PBS and stained with 0.1 mg/mL of DAPI for 30 minutes and washed again with PBS. The plates were imaged on a Perkin Elmer Opera high-content imaging system using a 20× air objective with two expositions, one for DAPI stain and other for eGFP. Images were analysed using the Acapella building blocks system (Perkin Elmer). The image analysis algorithm first identified the THP-1 nuclei followed by demarcation of the cytoplasm and identification of intracellular amastigotes. This algorithm reported mean number of parasites per THP-1 cell, the percentage of infected THP-1 cells and the total number of THP-1 cells.

Row | SMILES | solubility at 1 h [2] [µM] | EC50 [3] [µM] | EC50 [4] [µM] | EC50 [1] [µM] | EC50 at 96 h [5] [µM]
1 | CN(C)S(=O)(=O)Nc1ccc(F)c(-c2cn3nc(N4CCOCC4)cnc3n2)c1 [Example 32, N-(4-fluoro-3-(2-morpholinoimidazo [1,2-b][1,2,4]triazin-6-yl)phenyl)-N′-dimethylsulfamide] | – | > 50.1 | ≥ 20 | 10 to 39.8 | –
2 | O=C(Nc1ccc(F)c(-c2cn3nc(-c4ccc(CCN5CCOCC5)cc4)cnc3n2)c1)N1CCCC1 [Example 39, N-(4-fluoro-3-(2-(4-(2-morpholinoethyl)phenyl)imidazo[1,2-b][1,2,4]triazin-6-yl)phenyl) pyrrolidine-1-carboxamide] | – | > 50.1 | ≥ 20 | 0.00501 to 0.631 | –
3 | CC(C)OC(=O)Nc1ccc(F)c(-c2cn3nc(N4CCOCC4)cnc3n2)c1 [Example 48, isopropyl (4-fluoro-3-(2-morpholinoimidazo[1,2-b] [1,2,4]triazin-6-yl)phenyl)carbamate] | 10 to 83 (≈ 4 to 33.2 µg/mL) | – | – | 0.00501 to 0.631 | 2.51 to 10
4 | Cc1noc(C)c1S(=O)(=O)Nc1ccc(F)c(-c2cn3nc(N4CCOCC4)cnc3n2)c1 [Example 53, N-(4-fluoro-3-(2-morpholinoimidazo[1,2-b] [1,2,4]triazin-6-yl)phenyl)-3,5-dimethyl-isoxazole-4-sulfonamide] | – | > 50.1 | ≥ 20 | 10 to 39.8 | –

Second part, led by results:

Row | solubility at 1 h [2] [µM] | EC50 [3] [µM] | EC50 [4] [µM] | SMILES | EC50 [1] [µM] | EC50 at 96 h [5] [µM]
5 | 1 to 6 (≈ 0.446 to 2.68 µg/mL) | > 50.1 | ≥ 20 | CN(C)c1ccc(-c2cnc3nc(-c4cc(NC(=O)N5CCCC5)ccc4F)cn3n2)cn1 [Example 16, N-(3-(2-(6-(dimethyl-amino)pyridin-3-yl)imidazo[1,2-b][1,2,4]triazin-6-yl)-4-fluorophenyl)pyrrolidine-1-carboxamide] | 0.00501 to 0.631 | –
6 | 10 to 83 (≈ 4.6 to 38.1 µg/mL) | – | – | CN(C)Cc1ccc(-c2cnc3nc(-c4cc(NC(=O)N5CCCC5)ccc4F)cn3n2)cc1 [Example 37, N-(3-(2-(4-((dimethyl-amino)methyl)phenyl)imidazo[1,2-b][1,2,4]triazin-6-yl)-4-fluoro-phenyl)pyrrolidine-1-carboxamide] | 0.00501 to 0.631 | 2.51 to 10
7 | 100 to 416 (≈ 46 to 191 µg/mL) | – | – | CN(C)Cc1cccc(-c2cnc3nc(-c4cc(NC(=O)N5CCCC5)ccc4F)cn3n2)c1 [Example 41, N-(3-(2-(3-((dimethyl-amino)methyl)phenyl)imidazo[1,2-b][1,2,4]triazin-6-yl)-4-fluorophenyl)pyrrolidine-1-carboxamide] | 0.00501 to 0.631 | 2.51 to 10
8 | 100 to 416 (≈ 44.6 to 185 µg/mL) | – | – | CNCc1cccc(-c2cnc3nc(-c4cc(NC(=O)N5CCCC5)ccc4F)cn3n2)c1 [Example 44, N-(4-fluoro-3-(2-(3-((methylamino)methyl)phenyl)imidazo[1,2-b] [1,2,4]triazin-6-yl)phenyl) pyrrolidine-1-carboxamide] | 0.00501 to 0.631 | 2.51 to 10
